Data: patent publication US20230391779A1, “BICYCLIC COMPOUNDS, COMPOSITIONS AND USE THEREOF” (Betta Pharmaceuticals Co., Ltd., priority 2020, published 2023)
pEC50: −log10 of the molar value.

Tested on: TEAD-YAP/TAZ interaction
Experiment: CTGF ELISA assay
Format: cell-based, human
Conditions: CTGF in culture supernatant of NCI-H2052 cells, 24 hours with compound
Protocol: The detection of CTGF expression level can assessed the binding activity of TEAD-YAP/TAZ transcription factor, and the CTGF expression level was quantified by SimpleStep ELISA® kit (Abcam, ab261851).
NCI-H2052 cells (Purchased from ATCC) were cultured in RPMI 1640 medium, adding 10% FBS and 1% Penicillin-Streptomycin Solution and 1 mM Sodium pyruvate. The day before compounds treatment, the cultured cells were washed with PBS and digested with trypsin, then centrifuged and collected. Discarded the supernatant, the cells were resuspended in fresh complete medium. After cells counted, cells were seeded at 6500 cells/well in 96-well plates. And then cells were cultured overnight in incubator (37° C., 5% CO2).
After the cells were cultured overnight, discarded the culture supernatant, then washed with PBS solution, cells were incubated with 200 μl medium containing compounds in each well. The starting concentration was 10 μM and serial dilution in DMSO and medium were performed to achieve a final DMSO concentration of 0.5% (Final compounds concentration were 10000, 2500, 625, 156, 39.1, 9.77, 2.44, 0.61 nM, 0 nM (0.5% DMSO), The cells were then cultured in incubator (37° C., 5% CO2). Cultured for 24 hours, the cells were centrifuged at 1500 RPM at 4° C. for 5 minutes, and then 50 μl of culture supernatant were tested for CTGF ELISA assay.
The Human CTGF SimpleStep ELISA® Kit (Abcam, ab261851) employs an affinity tag labeled capture antibody and a reporter conjugated detector antibody which immunocapture the sample analyte in solution. This entire complex (capture antibody/analyte/detector antibody) is in turn immobilized via immunoaffinity of an anti-tag antibody coating the well. To perform the assay, samples or standards are added to the wells, followed by the antibody mix (capture antibody/detector antibody). After incubation, the wells are washed to remove unbound material. TMB Development Solution is added and during incubation is catalyzed by HRP, generating blue coloration. This reaction is then stopped by addition of Stop Solution completing any color change from blue to yellow. Signal is generated proportionally to the amount of bound analyte and the intensity is measured at 450 nm. Firstly, prepare all reagents, samples, and standards as instructed. Add 50 μl standard or sample to appropriate wells. Then add 50 μl of the Antibody Cocktail to each well. Seal the plate and incubate for 1 hour at room temperature on a plate shaker. Wash each well with Wash Buffer three times. Add 100 μl of TMB Development Solution to each well and incubate for 10 minutes in the dark on a plate shaker. Add 100 μl of Stop Solution to each well. Shake plate on a plate shaker for 1 minute to mix. Record the OD at 450 nm. Determine the concentration of the target protein in the sample by the standard curve.
EC50 value was determined by fitting the concentration response curves using GraphPad Prism software. The compounds of the present invention were tested for their capacity to inhibit TEAD-YAP/TAZ interaction according to the fitted curves of CTGF concentration response to compounds.

Row | pEC50 | SMILES
1 | 7.80 | CC#CC(=O)N1CCC(n2nc(-c3ccc(C(F)(F)F)cc3)c3ccccc32)C1 (stereo not shown) [Compound 55, 1-(3-(3-(4-(trifluoromethyl)phen-yl)-1H-indazol-1-yl)pyrrolidin-1-yl)but-2-yn-1-one]
2 | 7.15 | C/C=C/C(=O)N1CCC(n2nc(-c3ccc(C(F)(F)F)cc3)c3ccccc32)C1 (stereo not shown) [Compound 56, (E)-1-(3-(3-(4-(trifluoromethyl)-phenyl)-1H-indazol-1-yl)pyrrol-idin-1-yl)but-2-en-1-one]
3 | 7.09 | C#CC(=O)N1CCC(n2nc(-c3ccc(C(F)(F)F)cc3)c3ccccc32)C1 (stereo not shown) [Compound 57, 1-(3-(3-(4-(trifluoromethyl)phen-yl)-1H-indazol-1-yl)pyrrolidin-1-yl)prop-2-yn-1-one]
4 | 7.47 | C=CC(=O)N1CCC(n2nc(-c3ccc(C(F)(F)F)cc3)c3cccc(F)c32)C1 (stereo not shown) [Compound 70, 1-(3-(7-fluoro-3-(4-(trifluoro-methyl)phenyl)-1H-indazol-1-yl)-pyrrolidin-1-yl)prop-2-en-1-one]
5 | 7.92 | C=C(F)C(=O)N1CCC(n2nc(-c3ccc(C(F)(F)F)cc3)c3ncccc32)C1 (stereo not shown) [Compound 71, 2-fluoro-1-(3-(3-(4-(trifluoro-methyl)phenyl)-1H-pyrazolo[4,3-b]pyridin-1-yl)pyrrolidin-1-yl)-prop-2-en-1-one]
6 | 8.22 | C=C(F)C(=O)N1CCC(n2nc(-c3ccc(C(F)(F)F)cc3)c3ncn(C)c(=O)c32)C1 (stereo not shown) [Compound 77, 1-(1-(2-fluoroacryloyl)pyrrolidin-3-yl)-6-methyl-3-(4-(trifluoro-methyl)phenyl)-1,6-dihydro-7H-pyrazolo[4,3-d]pyrimidin-7-one]
7 | 7.68 | C=CC(=O)N1CCC(n2nc(-c3ccc(C(F)(F)F)cc3)c3cccc(C(=O)OC)c32)C1 (stereo not shown) [Compound 78, methyl 1-(1-acryloylpyrrolidin-3-yl)-3-(4-(trifluoromethyl)phenyl)-1H-indazole-7-carboxylate]
8 | 8.14 | C=CC(=O)N1CC(n2nc(-c3ccc(C(F)(F)F)cc3)c3ncn(C)c(=O)c32)C1 [Compound 79, 1-(1-acryloylazetidin-3-yl)-6-methyl-3-(4-(trifluoromethyl)-phenyl)-1,6-dihydro-7H-pyrazolo[4,3-d]pyrimidin-7-one]
9 | 8.30 | C=CC(=O)N1CC(n2nc(-c3ccc(C(F)(F)F)cc3)c3ncccc32)C1 [Compound 82, 1-(3-(3-(4-(trifluoromethyl)phen-yl)-1H-pyrazolo[4,3-b]pyridin-1-yl)azetidin-1-yl)prop-2-en-1-one]
10 | 8.15 | C=C(C)C(=O)N1CC(n2nc(-c3ccc(C(F)(F)F)cc3)c3ncccc32)C1 [Compound 87, 2-methyl-1-(3-(3-(4-(trifluoro-methyl)phenyl)-1H-pyrazolo[4,3-b]pyridin-1-yl)azetidin-1-yl)prop-2-en-1-one]
11 | 7.92 | C=CC(=O)N1CCC(n2nc(-c3ccc(C(F)(F)F)cc3)c3cc(OC)cnc32)C1 (stereo not shown) [Compound 94, 1-(3-(5-methoxy-3-(4-(trifluoro-methyl)phenyl)-1H-pyrazolo[3,4-b]pyridin-1-yl)pyrrolidin-1-yl)-prop-2-en-1-one]
12 | 7.52 | C=C(F)C(=O)N1CCC(n2nc(-c3ccc(C(F)(F)F)cc3)c3cc(OC)cnc32)C1 (stereo not shown) [Compound 95, 2-fluoro-1-(3-(5-methoxy-3-(4-(trifluoromethyl)phenyl)-1H-pyrazolo[3,4-b]pyridin-1-yl)-pyrrolidin-1-yl)prop-2-en-1-one]
13 | 8.40 | C=CC(=O)N1CCC(n2nc(-c3ccc(C(F)(F)F)cc3)c3cc(C)cnc32)C1 (stereo not shown) [Compound 96, 1-(3-(5-methyl-3-(4-(trifluoro-methyl)phenyl)-1H-pyrazolo[3,4-b]pyridin-1-yl)pyrrolidin-1-yl)-prop-2-en-1-one]
14 | 7.08 | C=CC(=O)N1CCC(n2nc(-c3ccc(C(F)(F)F)nc3)c3cccc(C(=O)NC(C)C)c32)C1 (stereo not shown) [Compound 98, 1-(1-acryloylpyrrolidin-3-yl)-N-isopropyl-3-(6-(trifluoromethyl)-pyridin-3-yl)-1H-indazole-7-carboxamide]
15 | 7.30 | C=CC(=O)N1CCC(n2nc(-c3ccc(C(F)(F)F)nc3)c3cccc(C(=O)NC4CC4)c32)C1 (stereo not shown) [Compound 100, 1-(1-acryloylpyrrolidin-3-yl)-N-cyclopropyl-3-(6-(trifluorometh-yl)pyridin-3-yl)-1H-indazole-7-carboxamide]
16 | 7.01 | C=CC(=O)N1CCC(n2nc(-c3ccc(C(F)(F)F)nc3)c3cccc(C(=O)NC4COC4)c32)C1 (stereo not shown) [Compound 101, 1-(1-acryloylpyrrolidin-3-yl)-N-(oxetan-3-yl)-3-(6-(trifluorometh-yl)pyridin-3-yl)-1H-indazole-7-carboxamide]
17 | 6.74 | C=CC(=O)N1CCC(n2nc(-c3ccc(C(F)(F)F)nc3)c3cccc(C(=O)NC)c32)C1 (stereo not shown) [Compound 102, 1-(1-acryloylpyrrolidin-3-yl)-N-methyl-3-(6-(trifluoromethyl)-pyridin-3-yl)-1H-indazole-7-carboxamide]
18 | 6.80 | C=CC(=O)N1CCC(n2nc(-c3ccc(C(F)(F)F)cc3)c3cccc(C(=O)N(C)C)c32)C1 (stereo not shown) [Compound 103, 1-(1-acryloylpyrrolidin-3-yl)-N,N-dimethyl-3-(4-(trifluoromethyl)-phenyl)-1H-indazole-7-carbox-amide]
19 | 7.08 | C=CC(=O)N1CCC(n2nc(-c3ccc(C(F)(F)F)cc3)c3cccc(C(=O)NC4CCC(F)(F)CC4)c32)C1 (stereo not shown) [Compound 111, 1-(1-acryloylpyrrolidin-3-yl)-N-(4,4-difluorocyclohexyl)-3-(4-(trifluoromethyl)phenyl)-1H-indazole-7-carboxamide]
20 | 7.07 | C=CC(=O)N1CCC(n2nc(-c3ccc(C(F)(F)F)cc3)c3cccc(C(=O)N4CCC(F)(F)C4)c32)C1 (stereo not shown) [Compound 112, 1-(3-(7-(3,3-difluoropyrrolidine-1-carbonyl)-3-(4-(trifluoro-methyl)phenyl)-1H-indazol-1-yl)-pyrrolidin-1-yl)prop-2-en-1-one]
21 | 7.44 | C=CC(=O)N1CC(n2nc(-c3ccc(C4CC4)cc3)c3ncccc32)C1 [Compound 120, 1-(3-(3-(4-cyclopropylphenyl)-1H-pyrazolo[4,3-b]pyridin-1-yl)-azetidin-1-yl)prop-2-en-1-one]
22 | 8.52 | C=CC(=O)N1CC(n2nc(-c3ccc(C(F)(F)F)cc3)c3ccc(N(C)C)nc32)C1 [Compound 121, 1-(3-(6-(dimethylamino)-3-(4-(trifluoromethyl)phenyl)-1H-pyrazolo[3,4-b]pyridin-1-yl)-azetidin-1-yl)prop-2-en-1-one]
23 | 7.62 | C=C(F)C(=O)N1CC(n2nc(-c3ccc(C(F)(F)F)cc3)c3ccc(N(C)C)nc32)C1 [Compound 122, 1-(3-(6-(dimethylamino)-3-(4-(trifluoromethyl)phenyl)-1H-pyrazolo[3,4-b]pyridin-1-yl)-azetidin-1-yl)-2-fluoroprop-2-en-1-one]
24 | 8.15 | C=CC(=O)N1CC(n2nc(-c3ccc(C(F)(F)F)nc3)c3cccnc32)C1 [Compound 123, 1-(3-(3-(6-(trifluoromethyl)pyr-idin-3-yl)-1H-pyrazolo[3,4-b]-pyridin-1-yl)azetidin-1-yl)prop-2-en-1-one]
25 | 7.12 | C=CC(=O)N1CCC2(CCC(n3nc(-c4ccc(C(F)(F)F)cc4)c4ncccc43)C2)C1 (stereo not shown) [Compound 125, 1-(7-(3-(4-(trifluoromethyl)phen-yl)-1H-pyrazolo[4,3-b]pyridin-1-yl)-2-azaspiro[4.4]nonan-2-yl)-prop-2-en-1-one]
26 | 8.10 | C=CC(=O)N1CC(n2nc(-c3ccc(C(F)(F)F)cc3F)c3cccnc32)C1 [Compound 127, 1-(3-(3-(2-fluoro-4-(trifluoro-methyl)phenyl)-1H-pyrazolo[3,4-b]pyridin-1-yl)azetidin-1-yl)prop-2-en-1-one]
27 | 8.10 | C=CC(=O)N1CC(n2nc(-c3ccc(C(F)(F)F)cc3F)c3ncccc32)C1 [Compound 129, 1-(3-(3-(2-fluoro-4-(trifluoro-methyl)phenyl)-1H-pyrazolo[4,3-b]pyridin-1-yl)azetidin-1-yl)prop-2-en-1-one]
28 | 7.74 | C=CC(=O)N1CC(n2nc(-c3ccc(C(F)(F)F)nc3)c3ncccc32)C1 [Compound 131, 1-(3-(3-(6-(trifluoromethyl)pyr-idin-3-yl)-1H-pyrazolo[4,3-b]-pyridin-1-yl)azetidin-1-yl)prop-2-en-1-one]
